Several values for one entry are separate records, joined by “and”; a condition that tells them apart may be missing. Identical values can stand only once. Counter-ions that a name gives are not always drawn. Like-named read-outs stand apart in the source and are kept apart here. Where a SMILES comes first, the peptide text is derived from it.
Experiments:
[1] = Dynamic laser light scattering (DLS) of oleic acid micro-/nanoemulsions; format: physicochemical; details: for Mean Size by Intensity: DLS, emulsion with oleic acid; for Part: percentage of the peak in the sample
[2] = pH of aqueous solution of solubilizing compound mixed with oleic acid; format: physicochemical; details: solubilizing compound in water with 0.833 mol equivalents of oleic acid
[3] = Estimation of the interaction between oleic acid and the test substance; format: physicochemical
[4] = Estimation of solubility of the test substance in H2O; format: physicochemical
[5] = log P of the test substance
[6] = water (H2O), test substance mixed with oleic acid

Row | Compound | Mean Size by Intensity [1] [nm] | Part [1] [%] | pH [2] | Interaction with Oleic Acid [3] | other results
1 | Cc1c[nH]cn1 | 224 | 96.7 | 8.90 | X, E/S | –
2 | 4-(4,6-Diamino-2,2-dimethyl-2H-[1,3,5]triazine-1-yl | – | – | 11.28 | X, E, S | Dissolved (H2O) [4]: (X)
3 | CC(=O)NC1CCSC1=O (racemic) [DL-N-Acetylhomocysteine thiolactone, reference compound] | – | – | 10.70 | – | –
4 | CN(C)C(=N)NC(=N)N.Cl [1,1-Dimethylbiguanide hydrochloride, reference compound] | – | – | 9.20 | – | –
5 | Cc1ccccc1NC(=N)Nc1ccccc1C [1,3-Di-o-tolyl-guanidine] | – | – | – | – | logP [5, 6]: 3.01
6 | Cc1ccccc1NC(=N)NC(=N)N [1-(o-Tolyl)biguanide] | 850 | 95.5 | 11.53 | X, E | logP [5, 6]: 1.41; Dissolved (H2O) [4]: (X)
7 | N=C(N)NCCC(=O)O [3-Guanidinopropionic acid] | 153 | 64.7 | 11.71 | X, E | logP (physchem): -3.77
8 | O=C(O)CCCNC1=NCCN1 [4-(4,5-Dihydro-1H-imidazol-2-ylamino)-butyric acid] | 627 | 58.9 | 8.63 and 11.5 | X, E | logP [5, 6]: -1.6
9 | Cl.N=C(N)Nc1ccc(C(=O)O)cc1 [4-Guanidinobenzoic acid hydrochloride] | – | – | 11.19 | X, E | logP [5, 6]: 0.604; Dissolved (H2O) [4]: (X)
10 | N=C(N)NCCCC(=O)O [4-Guanidinobutyric acid] | – | – | 10.41 | X, E | logP (physchem): -3.44
11 | N=C(N)NCCCCCC(=O)O [6-Guanidinohexanoic acid] | – | – | 9.01 | (X), E | logP [5, 6]: -3.6; Dissolved (H2O) [4]: (X)
12 | N=C(N)N[C@@H](CCC(=O)O)C(=O)O [(S)-(−)-2-Guanidinoglutaric acid] | – | – | 10.15 | X, E | logP [5, 6]: -3.14
13 | N=C(N)NCCCCN.O=S(=O)(O)O [Agmatin sulfate] | – | – | 10.53 | X, S | logP (physchem): -1.81
14 | C[C@H](NC(=O)[C@H](Cc1ccccc1)NC(=O)[C@@H](N)CCCNC(=N)N)C(=O)O [Arg-Phe-Ala acetate] (H-Arg-Phe-Ala-OH; N-terminus and C-terminus assumed) | – | – | – | – | logP: -3.6
15 | N=C(N)NCCC[C@H](N)C(=O)N[C@@H](Cc1ccccc1)C(=O)O [Arg-Phe] | – | – | – | – | logP [5]: -3.34
16 | CC(=O)O.CC(=O)O.N=C(NCCCCCCNC(=N)NC(=N)Nc1ccc(Cl)cc1)NC(=N)Nc1ccc(Cl)cc1 [Chlorhexidine diacetate, 1,1′-hexamethylenbis[5-(4-chlorphenyl)-biguanide], reference compound] | – | – | 6.51 and 9.58 | X, S | Dissolved (H2O) [4]: (X)
17 | CN/C(=N/CCSCc1nc[nH]c1C)NC#N [Cimetidine, 2-cyan-1-methyl-3-[2-(5-methylimidazol-4-ylmethylsulfanyl)-ethyl]-guanidine, reference compound] | 239 | 67.2 | 9.54 | X, E | logP (physchem): 0.19; Dissolved (H2O) [4]: ((X))
18 | CN/C(=N\[N+](=O)[O-])NCc1cnc(Cl)s1 [Clothianidine, (E)-1-(2-chlor-1,3-thiazol-5-ylmethyl)-3-methyl-2-nitroguanidine] | 153 | 53.9 | 9.81 | X, E | logP [5]: -2.03; Dissolved (H2O) [4]: (X)
19 | CN(CC(=O)O)C(=N)N [Creatine] | – | – | – | (X), E | logP (physchem): -0.884
20 | C[C@@H](N[C@@H](CCCN=C(N)N)C(=O)O)C(=O)O [D-(+)-Octopine] | 435 | 94.7 | 6.70 | X, E | –
21 | COC(=O)[C@H](N)CCCNC(=N)N.Cl.Cl [D-arginine methyl ester dihydrochloride] | – | – | 11.35 | X, S | logP (physchem): -2.11
22 | CC(=O)NCC(=O)O.CC(=O)NCC(=O)O.N=C(N)c1ccc(N=NNc2ccc(C(=N)N)cc2)cc1 [Diminazene aceturate (basic), Diminazene aceturate, reference compound] | 426 | 60.7 | – | X, S, (E) | –
23 | N=C(N)NCCC[C@H](NC(=O)CN)C(=O)O [Gly-Arg] (H-Gly-Arg-OH; N-terminus and C-terminus assumed) | – | – | – | – | logP: -5.06
24 | NCC(=O)N[C@@H](Cc1c[nH]cn1)C(=O)O [Gly-His] (H-Gly-His-OH; N-terminus and C-terminus assumed) | – | – | – | – | logP: -2.42
25 | NCC(=O)N[C@@H](Cc1ccccc1)C(=O)O [Gly-Phe, reference compound] (H-Gly-Phe-OH; N-terminus and C-terminus assumed) | – | – | – | – | logP [5]: -0.65

Row | Compound | Mean Size by Intensity [1] [nm] | Part [1] [%] | pH [2] | Interaction with Oleic Acid [3] | other results
26 | NC(N)=NCC(=O)O [Guanidine acetic acid] | – | – | 6.20 | (X), E/S | log P [5]: −2.387; Dissolved (H2O) [4]: ((X))
27 | N=C(N)N [Guanidinehydrochloride] | – | – | 12.71 | X, E | logP (physchem): -1.03
28 | NC(N)=NCCCC[C@H](N)C(=O)O [H-Homoarg-OH] | 107 | 68.5 | 8.66 | X, E | –
29 | N=C(N)NCCC[C@H](NC(=O)[C@@H](N)Cc1c[nH]cn1)C(=O)O [His-Arg] (H-His-Arg-OH; N-terminus and C-terminus assumed) | – | – | – | – | logP: -5.74
30 | c1c[nH]cn1 [Imidazole] | – | – | – | – | logP (physchem): -0.67
31 | Cl.N=C(N)NC[C@H](N)C(=O)O [L-2-Amino-3-guanidinopropionic acid hydrochloride] | 113 | 87.2 | 11.05 | X, E | logP (physchem): -3.81
32 | NC(N)=NOCC[C@H](N)C(=O)O [L-Canavanine free base] | – | – | 8.67 and 9.04 | (X), S, E and X, E | –
33 | CC(=N)NCCCC[C@H](N)C(=O)O [L-NIL] | 349 | 94.1 | 9.12 | X, E | –
34 | NCCCC[C@H](N)C(=O)N[C@@H](CCCN=C(N)N)C(=O)O [Lys-Arq acetate] (H-Lys-Arg-OH) | – | – | – | – | logP: -5.06
35 | Nc1nc(N)nc(N)n1 [Melamine] | – | – | 8.25 | X, S | logP (physchem): -0.961; Dissolved (H2O) [4]: (X)
36 | N=C(N)NC(N)=O.O.O=S(=O)(O)O [N-Guanylurea sulfate salt hydrate] | – | – | – | X, E | logP (physchem): 3.54
37 | NC(=NCC[C@H](N)C(=O)O)NO [N-ω-Hydroxy-L-norarginine] | 325 | 93.9 | 9.51 | X, E, S | –
38 | NC(=NCCC[C@H](N)C(=O)O)N[N+](=O)[O-] [N-ω-Nitro-L-arginine] | 85.5 | 46.7 | 11.95 | X, E | –
39 | CC(=O)O.CNC(=N)NCCC[C@H](N)C(=O)O [N-ω-monomethyl-L-arginine acetate] | – | – | 8.49 | X, E | –
40 | CN(C)C(N)=NCCC[C@H](N)C(=O)O.Cl.Cl [NG,NG-Dimethylarginine dihydrochloride] | 22.9 | 87.4 | 9.45 | X, E | –
41 | [H]/N=C(\N/C(=N/[H])Nc1ccc(Cl)cc1)NC(C)C [Proguanil hydrochloride, 1-(4-chlorphenyl)-5-isopropylbi-guanide, reference compound] | – | – | 7.66 | X, E | logP [5, 6]: 2.53; Dissolved (H2O) [4]: (X)
42 | NC(N)=NS(=O)(=O)c1ccc(N)cc1 [Sulfaguanidine, 4-amino-N-(diaminomethylen)benzensulfonamide, reference compound] | – | – | – | X, S | logP (physchem): -1.24
43 | C[C@@H](O)[C@H](N)C(=O)N[C@@H](CCCCN)C(=O)N1CCC[C@H]1C(=O)N[C@@H](CCCNC(=N)N)C(=O)O [Thr-Lys-Pro-Arq (Tuftsin)] (H-TKPR-OH; N-terminus and C-terminus assumed) | – | – | – | – | logP: -3.98
44 | N=C(N)NCCC[C@H](NC(=O)[C@@H](N)Cc1ccc(O)cc1)C(=O)O [Tyr-Arg (Kyotorphin acetate), L-tyrosyl-L-arginine] | – | – | 8.54 | X, E | logP (physchem): -4
45 | NC(N)=O [Urea, reference compound] | 341 | 96.3 | 8.59 | – | Interaction with Oleic Acid ([3]; 60° C.): ((X))
46 | Aminophenylacetic acid [reference compound] | – | – | 9.23 | ((X)) | log P [5]: 0.73; Dissolved (H2O) [4]: (X)
47 | Argininosuccinic acid disodium salt hydrate | 721 | 74.6 | 9.93 | X, E | –
48 | Poly-L-arginine HCl [Poly-L-arginine HCl (70.000-150.000 MW)] | – | – | – | X, S | –
49 | polyhexamethylenbiguanide (PHMB) [Polyhexanide −5% (2300 bis 3100 MW), reference compound] | – | – | 5.61 and 8.61 | X, S | –

From US9127233B2, “Device and method for solubilizing, separating, removing and reacting carboxylic acids in oils, fats, aqueous or organic solutions by means of micro-or nanoemulsification” (priority 2010, dated 2015)
